Assay results taken from patent US12344623B2, “Thiazolopyridine derivatives as adenosine receptor antagonists” (Merck Patent GmbH, priority 2019, dated 2025).

Legend:
Type in all cases: cell-based
human A2B receptor = target: T1, human A2B receptor (Homo sapiens, UniProt P29275); test: Functional A2B receptor activity, recombinant HEK293 cells, cAMP (HTRF), agonist NECA; details: read-out: Functional A2B receptor activity, HEK293, cAMP, IC50
T1 construct: expressed in transfected cells; host or cells: HEK293
T1 sequence (P29275 1-332): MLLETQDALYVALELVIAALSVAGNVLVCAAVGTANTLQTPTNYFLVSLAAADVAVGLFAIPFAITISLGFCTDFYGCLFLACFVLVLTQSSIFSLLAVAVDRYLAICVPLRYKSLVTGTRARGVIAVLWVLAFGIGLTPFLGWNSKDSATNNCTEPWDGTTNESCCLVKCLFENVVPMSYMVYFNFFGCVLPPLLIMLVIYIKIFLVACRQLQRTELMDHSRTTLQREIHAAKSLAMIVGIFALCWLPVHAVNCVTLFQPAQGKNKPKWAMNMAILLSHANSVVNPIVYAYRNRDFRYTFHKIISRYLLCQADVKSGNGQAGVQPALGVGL
Procedure, shortened: (§1)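 cAMP readout by HTRF after 30 min exposure of cells to forskolin, compound and agonist; data normalized vs inhibitor ctrl and DMSO (neutral) ctrl, then fitted.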

human A2A receptor [1] = target: T2, human A2A receptor (Homo sapiens, UniProt P29274); test: Human T cells, endogenous A2A receptor, cAMP, agonist NECA; details: read-out: hTcell data, cAMP, IC50
T2 sequence (P29274 whole entry): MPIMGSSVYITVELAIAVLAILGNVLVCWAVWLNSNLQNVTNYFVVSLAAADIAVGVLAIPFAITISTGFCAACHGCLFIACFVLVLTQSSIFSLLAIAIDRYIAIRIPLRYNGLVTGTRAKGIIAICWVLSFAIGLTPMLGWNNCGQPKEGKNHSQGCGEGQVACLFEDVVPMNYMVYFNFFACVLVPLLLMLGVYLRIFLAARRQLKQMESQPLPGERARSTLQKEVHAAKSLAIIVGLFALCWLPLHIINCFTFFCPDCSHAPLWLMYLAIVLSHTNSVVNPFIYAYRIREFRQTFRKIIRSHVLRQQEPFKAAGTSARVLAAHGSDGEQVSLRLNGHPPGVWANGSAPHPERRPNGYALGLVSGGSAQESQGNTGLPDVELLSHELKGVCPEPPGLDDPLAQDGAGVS
Procedure: The endogenous functional activity of the Gs-coupled human A2A receptor was measured in T cells, where this receptor is highly expressed. Determination of receptor activity was done by quantification of cAMP, which is a second messenger for adenosine receptors.
In short, human pan T cells were isolated from human PBMC (MACS Pan T Cell Isolation Kit, Miltenyi Biotec) that have been derived from fresh whole blood. The T cells were seeded in 384-well microtiter plates and treated with test compounds. […] Finally, HTRF reagents (cAMP Femto Kit, CisBio) were added to the wells, and after 1 h cellular cAMP levels were determined using the ENVISION (Perkin Elmer) plate reader.
The obtained raw data were normalized against the inhibitor control and the neutral control (DMSO) and the normalized data were fitted using Genedata Screener software.

human A2A receptor [2] = target: T2, human A2A receptor; test: Functional A2A receptor activity, recombinant HEK293 cells, cAMP (HTRF), agonist NECA; parameters: expressed in transfected cells; host or cells: HEK293; details: read-out: Functional A2A receptor activity, HEK293, cAMP, IC50
Procedure, shortened: as §1

mouse Pan T cells = test: mTcell assay, cAMP, agonist NECA; details: Mus musculus, T-cell
From the text: Adenosine (Ado) in tumor microenvironment can inhibit T cell activity by signaling through A2A receptors and suppress cytokine secretion by T cells. […] Potential A2A antagonists or A2A/A2B dual antagonists can rescue T cells from this inhibition. Herein, we describe the in vitro system we established using Pan T cells from mouse spleens to screen potential A2A antagonists or A2A/A2B dual antagonists for their activity. The method described involves the use of CD3/CD28 pre-coated beads to stimulate Pan T cells purified from mouse splenocytes, combined with the addition of A2A agonist along with potential A2A or A2A/A2B dual antagonists to evaluate potentiation of T cell cytokine production.
Pan T-cells are isolated from black 6 mice by manual dissociation and purified using a Miltenyi Pan T-cell isolation kit. The isolated T-cells are activated in 96 well plates for 48 hours using anti-CD3/CD28 beads in T-cell proliferation media.
After 48 hours, the T-cells are pooled, counted and suspended in serum free media containing 0.1% BSA. The cells are plated at 50,000 cells per well in 10 ul of media and incubated for 2 hours at 37° C. Test compounds are dispensed into the wells at a 10-point dose response, starting at a concentration of 10 uM. […] The plates are incubated for 30 minutes at 37° C. and assayed for cAMP levels using the Cisbio cAMP Dynamic2 reagent kit by adding 10 ul of the kit reagents to each well. The plates are incubated for 1 hour at room temperature and the HTRF signal is read on an Envision plate reader. The raw data is analyzed in Genedata Screener and the resulting data is loaded into the database.

human A1 receptor = target: T3, human A1 receptor (Homo sapiens, UniProt P30542); test: Functional A1 receptor activity, recombinant CHO cells, cAMP (HTRF), forskolin, agonist CPA; details: recombinant CHO cells, forskolin, agonist CPA; read-out: Functional A1 receptor activity, CHO, cAMP, IC50
T3 construct: expressed in transfected cells; host or cells: CHO
T3 sequence (P30542 1-326): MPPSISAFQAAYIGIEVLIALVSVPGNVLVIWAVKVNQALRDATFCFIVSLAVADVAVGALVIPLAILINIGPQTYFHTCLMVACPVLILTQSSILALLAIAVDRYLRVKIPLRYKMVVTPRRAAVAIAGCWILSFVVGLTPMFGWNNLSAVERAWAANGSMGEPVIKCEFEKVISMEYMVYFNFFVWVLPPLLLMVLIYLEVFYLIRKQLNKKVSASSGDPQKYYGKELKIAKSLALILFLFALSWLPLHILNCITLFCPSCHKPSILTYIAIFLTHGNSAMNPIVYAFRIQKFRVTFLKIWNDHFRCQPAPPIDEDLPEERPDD
Procedure, shortened: (§2)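 CHO cells (hA1 or hA3) + forskolin + test cpd + agonist (CPA/A1, IB-MECA/A3), 30 min; HTRF cAMP readout; normalized vs inhibitor and DMSO controls, curve fit.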

human A3 receptor = target: T4, human A3 receptor (Homo sapiens, UniProt P0DMS8); test: Functional A3 receptor activity, recombinant CHO cells, cAMP (HTRF), forskolin, agonist IB-MECA; details: recombinant CHO cells, forskolin, agonist IB-MECA; read-out: Functional A3 receptor activity, CHO, cAMP, IC50
T4 construct: expressed in transfected cells; host or cells: CHO
T4 sequence (P0DMS8 1-318): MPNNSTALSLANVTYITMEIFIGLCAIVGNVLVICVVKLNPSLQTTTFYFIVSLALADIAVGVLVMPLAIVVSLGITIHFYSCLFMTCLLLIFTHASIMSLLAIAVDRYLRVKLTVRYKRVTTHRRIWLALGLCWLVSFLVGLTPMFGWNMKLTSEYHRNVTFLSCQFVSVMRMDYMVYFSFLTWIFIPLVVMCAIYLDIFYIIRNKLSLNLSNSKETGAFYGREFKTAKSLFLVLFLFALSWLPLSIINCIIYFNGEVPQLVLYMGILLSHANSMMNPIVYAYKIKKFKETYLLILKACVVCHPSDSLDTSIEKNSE
Procedure, shortened: as §2

## COc1ncc(C2=CCOCC2)c2sc(NC(=O)N3CCC4(CCCNC4)C3)nc12 (stereo not drawn) [Compound 102, 2,7-Diaza-spiro[4.5]decane-2-carboxylic acid [7-(3,6-dihydro-2H-pyran-4-yl)-4-methoxy-thiazolo[4,5-c]pyridin-2-yl]-amide]
Human A2B receptor
  IC50: < 0.1 µM
Human A2A receptor [1]
  IC50: < 0.01 µM
Human A2A receptor [2]
  IC50: < 0.01 µM
Mouse Pan T cells
  IC50: < 0.01 µM
Human A1 receptor
  IC50: > 1 µM
Human A3 receptor
  IC50: > 1 µM

## COc1ncc(C2=CCOCC2)c2sc(NC(=O)N3CCC(N4C(=O)CNC4=O)CC3)nc12 [Compound 131, 4-(2,5-Dioxo-imidazolidin-1-yl)-piperidine-1-carboxylic acid [7-(3,6-dihydro-2H-pyran-4-yl)-4-methoxy-thiazolo[4,5-c]pyridin-2-yl]-amide]
Human A2B receptor
  IC50: < 0.01 µM
Human A2A receptor [1]
  IC50: < 0.01 µM
Human A2A receptor [2]
  IC50: < 0.01 µM
Mouse Pan T cells
  IC50: < 0.1 µM
Human A1 receptor
  IC50: < 1 µM
Human A3 receptor
  IC50: > 1 µM

## COc1ncc(-c2ccccc2)c2sc(NC(=O)N3CCC(N4C(=O)CCC4=O)CC3)nc12 [Compound 99, 4-(2,5-Dioxo-pyrrolidin-1-yl)-piperidine-1-carboxylic acid (4-methoxy-7-phenyl-thiazolo[4,5-c]pyridin-2-yl)-amide]
Human A2B receptor
  IC50: < 0.01 µM
Human A2A receptor [1]
  IC50: < 0.1 µM
Human A2A receptor [2]
  IC50: < 0.01 µM
Mouse Pan T cells
  IC50: < 0.1 µM
Human A1 receptor
  IC50: > 1 µM
Human A3 receptor
  IC50: > 1 µM

## COc1ncc(-c2ccccc2)c2sc(NC(=O)N3CC[C@@H](CN)C3)nc12 [Compound 3, (S)-3-Aminomethyl-pyrrolidine-1-carboxylic acid (4-methoxy-7-phenyl-thiazolo[4,5-c]pyridin-2-yl)-amide]
Human A2B receptor
  IC50: < 0.01 µM
Human A2A receptor [1]
  IC50: < 0.01 µM
Human A2A receptor [2]
  IC50: < 0.01 µM
Mouse Pan T cells
  IC50: < 0.01 µM
Human A1 receptor
  IC50: < 1 µM
Human A3 receptor
  IC50: > 1 µM

## COc1ncc(C2=CCOCC2)c2sc(NC(=O)N3CCC4(CCNCC4)C3)nc12 [Compound 98, 2,8-Diaza-spiro[4.5]decane-2-carboxylic acid [7-(3,6-dihydro-2H-pyran-4-yl)-4-methoxy-thiazolo[4,5-c]pyridin-2-yl]-amide]
Human A2B receptor
  IC50: < 0.1 µM
Human A2A receptor [1]
  IC50: < 0.01 µM
Human A2A receptor [2]
  IC50: < 0.01 µM
Mouse Pan T cells
  IC50: < 0.1 µM
Human A1 receptor
  IC50: > 1 µM
Human A3 receptor
  IC50: > 1 µM

## COc1nc(F)c(N2CCOCC2)c2sc(NC(=O)N3CCC4(CCCOC4)C3)nc12 (stereo not drawn) [Compound 7, 7-Oxa-2-aza-spiro[4.5]decane-2-carboxylic acid (6-fluoro-4-methoxy-7-morpholin-4-yl-thiazolo[4,5-c]pyridin-2-yl)-amide]
Human A2B receptor
  IC50: < 0.01 µM
Human A2A receptor [1]
  IC50: < 0.01 µM
Human A2A receptor [2]
  IC50: < 0.01 µM
Mouse Pan T cells
  IC50: < 0.01 µM
Human A1 receptor
  IC50: > 1 µM
Human A3 receptor
  IC50: > 1 µM

## COc1ncc(-c2ccccc2)c2sc(NC(=O)N3CC[C@H](CN)C3)nc12 [Compound 1, (R)-3-Aminomethyl-pyrrolidine-1-carboxylic acid (4-methoxy-7-phenyl-thiazolo[4,5-c]pyridin-2-yl)-amide]
Human A2B receptor
  IC50: < 0.1 µM
Human A2A receptor [1]
  IC50: < 0.01 µM
Human A2A receptor [2]
  IC50: < 0.01 µM
Mouse Pan T cells
  IC50: < 0.1 µM
Human A1 receptor
  IC50: > 1 µM
Human A3 receptor
  IC50: > 1 µM

## COc1ncc(C2=CCOCC2)c2sc(NC(=O)N3CCC(N4C(=O)CCC4=O)CC3)nc12 [Compound 100, 4-(2,5-Dioxo-pyrrolidin-1-yl)-piperidine-1-carboxylic acid [7-(3,6-dihydro-2H-pyran-4-yl)-4-methoxy-thiazolo[4,5-c]pyridin-2-yl]-amide]
Human A2B receptor
  IC50: < 0.01 µM
Human A2A receptor [1]
  IC50: < 0.01 µM
Human A2A receptor [2]
  IC50: < 0.01 µM
Mouse Pan T cells
  IC50: < 0.1 µM
Human A1 receptor
  IC50: < 1 µM
Human A3 receptor
  IC50: > 1 µM

## COc1ncc(-c2ccco2)c2sc(NC(=O)N3CCC4(CCOCC4)C3)nc12 [Compound 48, 8-Oxa-2-aza-spiro[4.5]decane-2-carboxylic acid (7-furan-2-yl-4-methoxy-thiazolo[4,5-c]pyridin-2-yl)-amide]
Human A2B receptor
  IC50: < 0.01 µM
Human A2A receptor [1]
  IC50: < 0.1 µM
Human A2A receptor [2]
  IC50: < 0.01 µM
Mouse Pan T cells
  IC50: < 0.1 µM
Human A1 receptor
  IC50: > 1 µM
Human A3 receptor
  IC50: > 1 µM

## COc1nc(F)c(-c2ccccc2)c2sc(NC(=O)N3CC[C@@]4(CCCOC4)C3)nc12 [Compound 13, (5S)-N-{6-fluoro-4-methoxy-7-phenyl-[1,3]thiazolo[4,5-c]pyridin-2-yl}-7-oxa-2-azaspiro[4.5]decane-2-carboxamide]
Human A2B receptor
  IC50: < 0.01 µM
Human A2A receptor [1]
  IC50: < 0.01 µM
Human A2A receptor [2]
  IC50: < 0.01 µM
Mouse Pan T cells
  IC50: < 0.01 µM
Human A1 receptor
  IC50: < 1 µM
Human A3 receptor
  IC50: > 1 µM

## COc1nc(F)c(C2CCOCC2)c2sc(NC(=O)N3CCC4(CCCOC4)C3)nc12 (stereo not drawn) [Compound 31, 7-Oxa-2-aza-spiro[4.5]decane-2-carboxylic acid [6-fluoro-4-methoxy-7-(tetrahydro-pyran-4-yl)-thiazolo[4,5-c]pyridin-2-yl]-amide]
Human A2B receptor
  IC50: < 0.1 µM
Human A2A receptor [1]
  IC50: < 0.01 µM
Human A2A receptor [2]
  IC50: < 0.01 µM
Mouse Pan T cells
  IC50: < 0.01 µM
Human A1 receptor
  IC50: > 1 µM
Human A3 receptor
  IC50: > 1 µM

## COc1nc(F)c(C2CCOCC2)c2sc(NC(=O)c3ccc(C(=O)N(C)CCO)cc3)nc12 [Compound 50, N-[6-Fluoro-4-methoxy-7-(tetrahydro-pyran-4-yl)-thiazolo[4,5-c]pyridin-2-yl]-N′-(2-hydroxy-ethyl)-N′-methyl-terephthalamide]
Human A2B receptor
  IC50: < 0.01 µM
Human A2A receptor [1]
  IC50: < 0.01 µM
Human A2A receptor [2]
  IC50: < 0.01 µM
Mouse Pan T cells
  IC50: < 0.1 µM
Human A1 receptor
  IC50: > 1 µM
Human A3 receptor
  IC50: > 1 µM

## CNc1cccc(-c2cnc(OC)c3nc(NC(=O)N4CCC5(CCOCC5)C4)sc23)c1 [Compound 112, 8-Oxa-2-aza-spiro[4.5]decane-2-carboxylic acid [4-methoxy-7-(3-methylamino-phenyl)-thiazolo[4,5-c]pyridin-2-yl]-amide]
Human A2B receptor
  IC50: < 0.1 µM
Human A2A receptor [1]
  IC50: < 0.01 µM
Human A2A receptor [2]
  IC50: < 0.01 µM
Mouse Pan T cells
  IC50: < 0.01 µM
Human A1 receptor
  IC50: > 1 µM
Human A3 receptor
  IC50: > 1 µM

## COc1ncc(-c2ccccc2)c2sc(NC(=O)N3CCC(N4C(=O)CNC4=O)CC3)nc12 [Compound 137, 4-(2,5-Dioxo-imidazolidin-1-yl)-piperidine-1-carboxylic acid (4-methoxy-7-phenyl-thiazolo[4,5-c]pyridin-2-yl)-amide]
Human A2B receptor
  IC50: < 0.01 µM
Human A2A receptor [1]
  IC50: < 0.01 µM
Human A2A receptor [2]
  IC50: < 0.01 µM
Mouse Pan T cells
  IC50: < 0.01 µM
Human A1 receptor
  IC50: < 1 µM
Human A3 receptor
  IC50: > 1 µM
